Measured values as given in patent publication US10406091B2, “Skin anti-ageing composition” (Conopco, Inc., priority 2011, dated 2019).

Tested on: interleukin 8 (IL-8)
Test: IL-8 ELISA on supernatant of TNF alpha-challenged primary epidermal keratinocytes pre-treated with actives
Format: cell-based, human
Conditions: 24 h pre-treatment, then 10 ng/ml TNF alpha 24 h
Experimental: An in-vitro model has been developed to investigate the impact of an inflammatory stimulus on epidmeral keratinocytes, in which: • a. Cells are grown in 24-well (2.0 cm^2) plates. • b. The cells are pre-treated with active ingredient of interest for 24 hours then challenged with an inflammatory stimulus, 10 ng/ml tumour necrosis factor alpha (TNFa) in addition to the active ingredient, for a further 24 hours. • c. Cell culture supernatant and cell lysates were harvested at 24 hours (t24) post-TNFa treatment. • d. All cell culture supernatant was assayed for IL-8 as a measure of inflammatory response and cell culture lysate was assayed for total protein (BCA), as a measure of cytotoxicity.
Primary human epidermal keratinocyte cells were cultured and passaged in fully supplemented KGM-Gold media (Lonza) with 70 μM calcium added. Cells were routinely plated out in 24-well tissue culture dishes, at a seeding density of ˜50,000 cells/well in 1 ml medium/well for 24 hours, and incubated at 37° C. in 5% CO2.
Test solutions were prepared in KGM-Gold media without supplemented hydrocortisone and antibiotic. Media was removed from the cells and test solutions were added for 24 hours. The epidermal keratinocytes were then stimulated with an inflammatory challenge for 24 hours using 10 ng/ml TNFa in the presence of the test solutions. The treated supernatant (cell culture supernatant) was removed and stored at −20° C. prior to IL-8 analysis.
The epidermal keratinocytes were washed with 1 ml of Dulbecco's phosphated buffer solution (PBS) and 250 μl of ice cold lysis buffer (1% NP-40, 0.1% sodium deoxycholate, 0.1% sodium dodecyl sulphate, 6 mM sodium chloride and 0.05 M Tris at pH 7.6) containing protease inhibitor cocktail (Roche, Complete™ mini tablets 1 836 170) was added. The lysates were clarified by scraping the samples with a 1 ml syringe plunger and passing through an Acrowell™ filter plate (Pall) using an Acroprep™ vacuum manifold (Pall) into a 96 well microwell plate (Sterilin). The clarified lysates were stored at −20° C. until total protein estimation.
The total protein concentration of each clarified cell lysate was measured using the Pierce BCA protein assay kit so that the response to effect of the test substances could be normalised to ug protein. A set of eight standard solutions ranging from 0 to 1200 μg/ml protein was prepared from the supplied 2 mg/ml bovine serum albumin (BSA) stock solution. 10 μl of standard or cell lysate was added to duplicate wells of a flat-bottomed 96-well plate. The reagent solution was prepared according to the kit instructions from 50 parts reagent A and 1 part reagent B. 200 μl of the final reagent was added to each well. The plate was mixed, covered and incubated at 37° C. for 30 minutes and absorbance read at 562 nm. A protein standard curve was constructed and used to determine the protein concentration of each cell lysate.
The IL-8 concentration of each cell culture supernatant was assayed using the DuoSet Human IL-8 ELISA assay (R&D Systems DY208) according to the manufacturer's instructions. The IL-8 capture antibody was bound to the microtitre plate (Greiner) overnight at room temperature in phosphate buffered saline and removed by washing three times was wash buffer (0.05% Tween 20 in PBS) on an automatic plate washer. The plate was blocked with 300 μl of 1% bovine serum albumin (BSA) in phosphate buffered saline for 1 hour at room temperature and washed 3 times in wash buffer. Seven IL-8 standards were prepared in reagent diluent (0.1% BSA, 0.05% Tween 20 in PBS) at concentrations ranging from […]. 100 μl of cell culture supernatant or standard was added to duplicate wells and incubated at room temperature for 2 hours. The plate was washed 3 times with wash buffer before 100 μl of IL-8 detection antibody diluted in reagent diluent was added and incubated for 2 hours at room temperature. […]

CC(C)[C@@H](C)/C=C/[C@@H](C)[C@H]1CC[C@H]2[C@@H]3CC=C4C[C@@H](O)CC[C@]4(C)[C@H]3CC[C@]12C [Brassicasterol]
IL-8 (pg/μg protein) (sterol alone 1 uM): 3.394 pg/μg protein | IL-8 (pg/μg protein) (sterol alone 5 uM): 4.448 pg/μg protein | IL-8 (pg/μg protein) (sterol alone 10 uM): 4.862 pg/μg protein

CC(C)=CCC[C@@H](C)[C@H]1CC[C@H]2[C@@H]3CC=C4C[C@@H](O)CC[C@]4(C)[C@H]3CC[C@]12C [Desmosterol]
IL-8 (pg/μg protein) (sterol alone 1 uM): 4.756 pg/μg protein | IL-8 (pg/μg protein) (sterol alone 5 uM): 4.799 pg/μg protein | IL-8 (pg/μg protein) (sterol alone 10 uM): 4.711 pg/μg protein

O=c1c(O)c(-c2cc(O)c(O)c(O)c2)oc2cc(O)cc(O)c12 [Myricetin]
IL-8 (pg/μg protein) (myricetin alone 0.5 ug/ml): 3.874 pg/μg protein | IL-8 (pg/μg protein) (myricetin alone 1 ug/ml): 2.741 pg/μg protein | IL-8 (pg/μg protein) (myricetin alone 2.5 ug/ml): 1.784 pg/μg protein

CC[C@H](/C=C/[C@@H](C)[C@H]1CC[C@H]2[C@@H]3CC=C4C[C@@H](O)CC[C@]4(C)[C@H]3CC[C@]12C)C(C)C [Stigmasterol]
IL-8 (pg/μg protein) (sterol alone 1 uM): 4.638 pg/μg protein | IL-8 (pg/μg protein) (sterol alone 5 uM): 3.87 pg/μg protein | IL-8 (pg/μg protein) (sterol alone 10 uM): 4.964 pg/μg protein
